10 molecules from patent US20030130272A1, “Anthracene derivatives as anti-cancer agents” (priority 1999, published 2003) can be followed below.

A word on the IC50: it is the concentration needed to halve the response being measured. For orientation: melting point means the temperature, or range, at which the solid turns liquid.

One series has as its system pBR322 DNA. Kind of series: DNA binding assay: fluorescence quenching, displacement of ethidium bromide and Hoechst dye 33258. To be noted: for QH50: concentration displacing 50% of Hoechst dye 33258 (groove binder) from DNA; for QE50: concentration displacing 50% of ethidium bromide (intercalator) from DNA. From the text: The present inventors have now determined that the introduction of appropriately positioned, conformationally restricted groups into the spacer group of spacer-linked anthraquinone-amino acid or peptide conjugates, allows control of the affinity and mode of binding to DNA. This affinity and mode of binding to DNA is readily determined by fluorescence quenching experiments in which the Q50 values for displacement of ethidium bromide, a DNA intercalator, and for Hoechst 33258 dye, a DNA minor-groove-binder, from which their fluorescent DNA-bound complexes are measured and expressed in μM units of drug concentration (see PCT/GB99/01901 incorporated herein by reference).
The propensity of selected compounds to bind to DNA in the absence of topos was measured in order to identify compounds that would bind weakly, or not at all. […] A […] was used determine binding constants of the compound to DNA by displacement of either ethidium bromide (an intercalator) or Hoechst dye 33258 (a groove binder) which form a DNA-bound fluorescent complex measured by fluorescence spectroscopy.
DNA Binding Assay Protocol
In order to detect the strength and mode of anthraquinone compound binding to DNA the displacement of known DNA binders was detected by measuring the fluorescence of a DNA/fluorescent compound complex. The addition of known concentrations of ethidium bromide, an interchelator, and Hoescht Dye, a groove binder, cause a fluorescent DNA/binder complex that can be detected and the fluorescence quantified. The addition of anthraquinone compounds displaces the interchelators or groove binders, depending on the compound mode of DNA binding, and therefore reduces the fluorescence accordingly. The preferred binding action of compounds can be quantified by determining the reduction in fluorescence resulting from a given concentration of compound. The quantification of a compounds ability to bind to DNA is expressed, as the concentration required to displace 50% of the ethidium bromide or Hocscht Dye, thus reducing the fluorescence by 50%. Therefore, the values produced are QE50 for ethidium, bromide, or QH50 for Hoescht Dye.
Compound: 300, 60, 10 and 10/6 µM (1.66 μM) solution concentrations were prepared for use in the assay to produce a range of compound. Concentrations. 100, 200 and 300 μl of each dilution were used in the assay reaction. This provides a range of concentrations: −30, 20, 10, 6, 4, 2, 1, 0.67, 0.33, 0.17, 0.11, 0.06, 0.00 μM in the assay environment. Intermediate concentrations can be utilised to enhance the accuracy of the displacement concentration determination.
Buffer: 100 mM Tris, NaCI 500 mM. […] Stock solution of 200 μM was prepared in 10× assay buffer. Dilution of DNA therefore provided the correct concentration of assay buffer in the assay cell. 300 μg DNA was used in 3 ml reaction mixture therefore 20 μM DNA concentration. Hoescht Dye 2 μM final concentration, therefore 100 μl of a 60 μM stock solution was added to a 3 ml assay. Ethidium Bromide 2 μM final concentration therefore 100 μl of a 60 μM stock solution was added to a 3 ml assay. Distilled H2O Water was added to produce 3 ml reaction volume. Order of addition: 1. DNA, 2. Water, 3. Drug, 4. Dye
The assay was completed with both Hoescht Dye and Ethidium. Bromide for each compound. The ethidium bromide is a DNA inter-chelator, Hoescht Dye is a minor groove binder. 100, 200 and 30 gμ of the lowest compound dilution was assayed. This procedure was repeated with all further dilution's. This provided a curve of fluorescence intensity decrease with increasing compound concentration. QE50 and QH50 values were determined by extrapolating the concentration of compound at the point where the fluorescence intensity was reduced by 50%. Controls involving compound only and ethidium. bromide or Hoechst Dye without compound were carried out for each experiment. […]

A further series relates to MAC 15A cells. Nature of the series: In vitro activity against MAC 15A adenocarcinoma (MTT assay). To be noted: MAC15A colon adenocarcinoma, 96 hours continuous exposure. The series is classed as cell-based. The method, then: MAC 15A cells were grown in RPMI 1640 medium supplemented with 10% foetal calf serum containing a 1% antibiotic mixture under standard tissue culture conditions and were maintained at 37° C. in a humidified atmosphere of 5% CO2 in air. Cells were harvested from a stock culture in exponential growth phase and plated in 96-well flat-bottomed plates to achieve a final density of 2×10^3 cells per well. After 2 hours incubation medium was replaced with either fresh medium containing 0.5% DMSO (control) or medium containing test compound dissolved in DMSO at a concentrations from 10 mM to 1 nM. Chemosensitivity was assessed using MTT assay by the method of Plumb et al Cancer Research 49 (1989) 4435-4440.
Following 96 hours continuous exposure to drug at 37° C. cells were incubated with fresh drug-free medium immediately prior to addition of MTT solution (5 mg/ml). Medium and MTT were removed after 4 hours and 150 μl of DMSO was added. For each plate the absorbance of the resulting solution was measured at the analytical wavelength 550 nm for formnazan product, using a Labsystem Mutiskan. IC50 values were obtained from growth curves of drug concentration against % survival and are expressed in μm.
In vitro Cytotoxicity of Spacer Limked Anthraquinone Peptide Conjugates on MAC15A Colon Adenocarcinoma
Background: Formazan colour is commonly taken as a measure of viable cells.

Series [1] deals with T1, topo I (Homo sapiens, UniProt P11387).
T1 sequence (P11387 1-765): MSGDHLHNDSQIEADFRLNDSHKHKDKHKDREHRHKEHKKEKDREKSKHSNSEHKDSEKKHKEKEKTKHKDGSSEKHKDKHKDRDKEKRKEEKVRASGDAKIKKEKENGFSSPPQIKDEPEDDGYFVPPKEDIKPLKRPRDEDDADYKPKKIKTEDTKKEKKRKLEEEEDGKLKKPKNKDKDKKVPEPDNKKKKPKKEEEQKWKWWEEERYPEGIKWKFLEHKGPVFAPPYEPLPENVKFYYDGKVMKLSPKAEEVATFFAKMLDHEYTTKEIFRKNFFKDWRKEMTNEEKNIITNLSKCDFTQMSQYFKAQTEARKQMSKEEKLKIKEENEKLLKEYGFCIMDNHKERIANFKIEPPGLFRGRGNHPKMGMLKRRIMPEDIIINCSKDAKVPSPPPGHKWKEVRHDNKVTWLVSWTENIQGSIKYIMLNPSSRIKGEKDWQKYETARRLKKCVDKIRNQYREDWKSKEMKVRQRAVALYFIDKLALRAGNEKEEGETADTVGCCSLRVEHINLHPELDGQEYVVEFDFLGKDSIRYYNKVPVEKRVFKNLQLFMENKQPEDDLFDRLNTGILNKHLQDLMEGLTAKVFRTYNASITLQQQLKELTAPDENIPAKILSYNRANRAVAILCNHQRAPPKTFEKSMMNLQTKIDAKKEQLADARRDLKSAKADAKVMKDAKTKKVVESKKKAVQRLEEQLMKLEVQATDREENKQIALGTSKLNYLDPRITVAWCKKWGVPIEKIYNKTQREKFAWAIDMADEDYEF
Nature of the series: Immunoband depletion of topoisomerase I in HL-60 cells. On the set-up: endogenous in cells; host or cells: HL-60 human leukemia cells. The series is classed as cell-based. The method, then:
Immunoband Depletion of Topoisomerase I
The data provides good evidence for ternary complex (drug-DNA-enzyme) formation in viable whole cells.
The method was adapted from Boege and Andersen [Selected novel flavones inhibit the DNA binding or the DNA religation step of cukaryotic topoisomerase I, F. Boege, T. Straub, A. Kehr, C. Boesenberg, K. Christiansen, A. Andersen, F. Jakob, J, Kohrle, J. Biol. Chem., 271, 2262, (1996)]; briefly, 10^6 HL-60 cells were cultivated for 1 h with and without drugs. Reactions were terminated by sedimentation of the cells (1000×g, 5 min, 4° C.) and subsequent lysis in PBS/NP40, RIPA buffer containing pepstatin and leupeptin. Samples were subjected to SDS-polyacrylamide (8%) gel electrophoresis and proteins that had entered the gel were electrophoretically transferred to nitro-cellulose sheets by the semi-dry method. Immunstaining of immobilised proteins was carried out using a polyclonal Ab of human topo I [topogen], and subsequently anti-human Ig biotinylated whole Ab (sheep)[Amersham], streptavidin horse-radish peroxidase and the ECL system [Amersham].

Series [2] has as its target T1, topo I. Kind of series: Stimulation of topoisomerase I mediated cleavage of pBR322 DNA. Type of series: biochemical. The following applies: for nicked plasmid DNA (topo I mediated cleavage): at 25 μM. The source says:
To determine the effect of the newly synthesised compounds on the catalytic activity of topo I and II (α and β), specific tests measuring relaxation, decatenation and enzyme-mediated cleavage of DNA were employed using purified human topos.
Simulation of Topoisomerase I Mediated Cleavage of pBR322DNA by Spacer-Linked Anthraquinone-Peptide Conjugates

The target of series [3] is T1, topo I. Kind of series: Inhibition of topoisomerase I mediated relaxation of pBR322 DNA. The series is classed as biochemical.
For the next series, the system named is HL-60 Human Leukemia. Kind of series: In vitro cytotoxicity against HL-60 human leukemia. Type of series: cell-based. The source says: In vitro Cytotoxicity of Spacer-Linked Anthraquinone-Peptide Conjugates Against HL-60 Human Leukemia

In the series on pBR322 DNA, “1-(2-β-alanylpiperazinyl)anthracene-9,10-dione trifluoroacetate salt [Example 15]” had a QH50 of 1.6 µM and a QE50 of 11.4 µM. In the series on MAC 15A cells, the concentration for half-maximal inhibition (IC50) is 20 µM.
In the series with pBR322 DNA, `O=C1c2c(O)ccc(O)c2C(=O)c2c(NCCNCCO)ccc(NCCNCCO)c21` [Mitoxantrone, reference compound] had a QH50 of 1.0 µM and a QE50 of 0.35 µM.
On to `N[C@@H](Cc1ccccc1)C(=O)NC1CCC(Nc2cccc3c2C(=O)c2ccccc2C3=O)CC1.O=C(O)C(F)(F)F` (stereo partly drawn) [Example 26, (2S)-2-amino-N-{4-[(9,10-dioxoanthryl)amino]cyclohexyl}-3-phenylpropanamide trifluoroacetate salt], for which the “intensity of the (100 kDa) topo I band” value on topo I [1] (1 h with drug, in comparison with camptothecin) is “Reductions in the intensity of the (100 kDa) topo I band were observed”. Also, the “extent of immunoband depletion” value at topo I [1] (above 200 μM) is reported as “comparable to the effect of camptothecin at 50 μM”. In the series with pBR322 DNA, this molecule registered a QH50 of 2.3 µM and a QE50 of 6.5 µM. In the series with MAC 15A cells, the IC50 was found to be 3.5 µM. Besides, the “nicked plasmid DNA (topo I mediated cleavage)” value (“nicked plasmid DNA” below) on topo I [2] is 45% nicked plasmid DNA at 25 μM. Besides, on topo I [3] (between 25-100 μM), the “DNA-topoisomerase activity: inhibition of topo I relaxation” value (“DNA-topoisomerase activity: inhibition” below) was “NO inhibition between 25-100 μM”.
On to `C[C@H](N)C(=O)N1CCN(c2cccc3c2C(=O)c2ccccc2C3=O)CC1.O=C(O)C(F)(F)F` [Example 17, 1-(1-L-alanylpiperazinyl)anthracene-9,10-dione trifluoroacetate salt], for which the concentration for half-maximal inhibition (IC50) in the series on MAC 15A cells is 25 µM; in the series on HL-60 Human Leukemia it was 10.7 µM. For the same molecule, at topo I [2], the “nicked plasmid DNA” value is listed as 10% nicked plasmid DNA at 25 μM. Also, the “DNA-topoisomerase activity: inhibition” value at topo I [3] (at 25 μM) was “COMPLETE inhibition at 25 μM”.
With `O=C1c2ccccc2C(=O)c2c1cccc2N1CCNCC1`, the melting point was 190 °C.
Regarding `Nc1ccc(Nc2cccc3c2C(=O)c2ccccc2C3=O)cc1`, the melting point lay in the range of 175 to 182 °C.
Take `N[C@@H](Cc1ccccc1)C(=O)N1CCN(c2cccc3c2C(=O)c2ccccc2C3=O)CC1.O=C(O)C(F)(F)F` [Example 21, 1-(1-L-phenylalanylpiperazinyl)anthracene-9,10-dione trifluoroacetate salt]: the “DNA-topoisomerase activity: topo I mediated cleavage” value at topo I [2] (between 10-100 μM) was “NO CLEAVAGE between 10-100 μM”. Besides, the “DNA-topoisomerase activity: inhibition” value at topo I [3] (at 10 μM) is given as “COMPLETE inhibition at 10 μM”.
`CN(CCO)c1cccc2c1C(=O)c1c(cccc1N(C)CCO)C2=O` gave a melting point of 168 to 178 °C.
`O=C(O)C(F)(F)F.O=C1c2ccccc2C(=O)c2c1cccc2N1CCNCC1` [Example 4b, 1-(1-piperazinyl)anthracene-9,10-dione trifluoroacetate salt] returned a melting point of 170 °C. Further, in the series on pBR322 DNA, the QH50 came to 1.7 µM and the QE50 came out at 10.5 µM.
In turn, “(2R)-2-amino-N-{4-[(9,10-dioxoanthryl)amino]cyclohexyl}-3-phenylpropanamide trifluoroacetate salt [Example 28]” came in with an IC50 with MAC 15A cells of 8 µM. On topo I [2], the “nicked plasmid DNA” value is 20% nicked plasmid DNA at 25 μM. Moreover, at topo I [3] (at 50 μM), the “DNA-topoisomerase activity: inhibition” value is “PARTIAL inhibition at 50 μM”.
